Results taken from ChEMBL document CHEMBL1201862, “PubChem BioAssay data set” (2004).
Active and inactive are the calls of the source.

Assays:
Large T antigen = Large T antigen (Simian virus 40, UniProt P03070); format: functional, Betapolyomavirus macacae;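 note: Confirmatory-stage PubChem screen for compounds that inhibit SV40 T antigen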
[1] = target: Heat shock protein HSP 90-alpha (Homo sapiens, UniProt P07900); format: functional, organism-based
[2] = target: T1, Trace amine-associated receptor 1 (Homo sapiens, UniProt Q96RJ0); assay: Counterscreen for agonists of the human trace amine associated receptor 1 (hTAAR1): Fluorescence-based cell-based high throughput dose response assay to identify hTAAR1 agonist that also desensitize TAAR1 receptor response.; format: functional
T1 sequence (Q96RJ0 whole entry): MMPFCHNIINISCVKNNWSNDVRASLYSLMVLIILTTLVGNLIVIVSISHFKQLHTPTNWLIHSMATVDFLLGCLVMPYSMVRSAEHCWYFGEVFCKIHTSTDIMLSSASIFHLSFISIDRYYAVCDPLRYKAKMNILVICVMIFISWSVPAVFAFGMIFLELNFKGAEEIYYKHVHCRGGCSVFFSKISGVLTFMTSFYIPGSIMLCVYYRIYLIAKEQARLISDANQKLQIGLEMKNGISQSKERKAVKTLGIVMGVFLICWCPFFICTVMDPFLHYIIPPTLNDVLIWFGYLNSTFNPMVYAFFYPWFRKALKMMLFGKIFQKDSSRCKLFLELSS

cells [3] = format: functional, cell-based
cells [4] = format: functional, cell-based; remark: listed apart in the source
[5] = target: T1, Trace amine-associated receptor 1; assay: Fluorescence-based cell-based high throughput dose response assay to identify agonists of the human trace amine associated receptor 1 (TAAR1).; format: functional
[6] = blockade of melanocortin 4 receptor signaling – cell-based, plate reader, cherry pick, counter-screen for LGR2 antagonist project, dose response (AID 743444); format: functional;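 note: transfected HEK 293 cells stimulated with alpha-MSH peptide; potency of inhibitors of the alpha-MSH evoked signal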
[7] = toxicity toward HepG2 liver cells – cell-based, plate reader, cherry-pick, antagonist series, cytotoxicity control, dose response (AID 743416); format: functional
[8] = viability loss in HEK293 cells – cell-based, plate reader, cherry-picked samples, cytotoxicity control, dose response (AID 743446); format: functional
[9] = A549 cell cytotoxicity, dose response, cytotoxicity control, plate reader, cherry-pick, antagonist series (AID 743412); format: functional, cell-based
[10] = NIH3T3 cell viability loss – ATP luminescence, mouse fibroblasts, counter-screen, dose response (AID 2010); format: functional, cell-based;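 note: cells exposed to compound for about 90 hours before reading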
Protein RecA = target: T2, Protein RecA (Mycobacterium tuberculosis, UniProt P9WHJ3); assay: Fluorescence Cell-Free Homogeneous Dose Retest to Identify Inhibitors of RecA-Intein Splicing Activity. [Related pubchem assays (depositor defined):AID2097, AID2223, AID489010, AID492950]; format: functional
T2 sequence (P9WHJ3 whole entry): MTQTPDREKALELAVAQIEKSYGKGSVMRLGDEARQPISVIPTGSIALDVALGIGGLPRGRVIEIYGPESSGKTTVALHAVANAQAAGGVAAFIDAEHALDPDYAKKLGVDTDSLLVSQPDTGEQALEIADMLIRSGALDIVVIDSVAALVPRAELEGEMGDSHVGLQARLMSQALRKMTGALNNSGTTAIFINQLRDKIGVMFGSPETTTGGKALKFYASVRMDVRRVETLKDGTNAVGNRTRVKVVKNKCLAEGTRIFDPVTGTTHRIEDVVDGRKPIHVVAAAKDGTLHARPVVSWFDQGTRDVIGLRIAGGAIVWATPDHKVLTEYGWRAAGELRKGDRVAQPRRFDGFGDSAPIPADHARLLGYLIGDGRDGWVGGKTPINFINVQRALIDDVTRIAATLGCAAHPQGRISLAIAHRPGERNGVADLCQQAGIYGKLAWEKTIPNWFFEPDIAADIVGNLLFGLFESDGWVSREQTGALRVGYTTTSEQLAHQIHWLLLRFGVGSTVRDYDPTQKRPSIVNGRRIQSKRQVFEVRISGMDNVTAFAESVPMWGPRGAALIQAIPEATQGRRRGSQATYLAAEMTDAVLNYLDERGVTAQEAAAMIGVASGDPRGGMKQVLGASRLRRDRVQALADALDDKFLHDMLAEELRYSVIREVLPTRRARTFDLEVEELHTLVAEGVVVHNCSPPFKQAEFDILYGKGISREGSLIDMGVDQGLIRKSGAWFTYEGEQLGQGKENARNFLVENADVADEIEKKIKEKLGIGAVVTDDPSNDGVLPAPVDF

[11] = Trypanosoma cruzi growth suppression in host cells – NIH3T3 host cells, beta-gal luminescence, confirmation (AID 2044); format: functional, cell-based;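 note: intracellular parasites grown in NIH/3T3 mouse fibroblasts as host cells; luminescent beta-galactosidase reporter signal from transgenic T. cruzi replicating inside host cells; inhibitors lower the luminescence signal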
[12] = microbe, parasite or virus in culture; format: functional; conditions: Mycobacterium tuberculosis
[13] = target: T3, Replicative DNA helicase DnaB (Mycobacterium tuberculosis, UniProt P9WMR3); assay: DnaB intein splicing inhibitors, dose response, biochemical, cell-free fluorescence (AID 449749); format: functional
T3 sequence (P9WMR3 whole entry): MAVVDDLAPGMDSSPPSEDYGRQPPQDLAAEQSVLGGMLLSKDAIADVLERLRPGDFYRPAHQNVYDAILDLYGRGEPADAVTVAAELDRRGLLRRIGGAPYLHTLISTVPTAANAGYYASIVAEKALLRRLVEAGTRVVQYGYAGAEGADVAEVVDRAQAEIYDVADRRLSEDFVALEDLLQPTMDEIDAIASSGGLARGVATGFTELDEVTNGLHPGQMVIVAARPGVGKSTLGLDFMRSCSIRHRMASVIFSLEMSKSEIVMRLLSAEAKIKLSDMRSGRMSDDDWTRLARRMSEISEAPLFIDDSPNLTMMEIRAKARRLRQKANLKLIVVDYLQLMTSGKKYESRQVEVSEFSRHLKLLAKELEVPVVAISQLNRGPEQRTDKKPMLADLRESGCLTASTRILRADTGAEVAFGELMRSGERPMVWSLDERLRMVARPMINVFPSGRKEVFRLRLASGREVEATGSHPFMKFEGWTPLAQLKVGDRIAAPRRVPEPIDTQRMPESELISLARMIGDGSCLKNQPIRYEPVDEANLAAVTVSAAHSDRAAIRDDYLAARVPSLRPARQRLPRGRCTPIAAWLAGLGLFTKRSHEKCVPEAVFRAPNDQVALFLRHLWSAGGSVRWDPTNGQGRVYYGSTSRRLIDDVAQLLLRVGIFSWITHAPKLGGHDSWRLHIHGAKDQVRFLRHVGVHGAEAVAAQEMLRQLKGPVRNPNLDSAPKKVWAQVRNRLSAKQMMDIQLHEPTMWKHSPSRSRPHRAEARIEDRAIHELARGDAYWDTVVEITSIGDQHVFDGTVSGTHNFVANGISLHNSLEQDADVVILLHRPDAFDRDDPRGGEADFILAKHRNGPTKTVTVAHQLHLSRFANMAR

[14] = blockers of bursicon-stimulated LGR2 cAMP reporter – cell-based, HEK293, CRE-luciferase reporter, cherry pick, set 2, dose response (AID 743343); format: functional;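 note: transfected cells were stimulated with diluted bursicon conditioned medium after compound addition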
[15] = reduction of Shn3 3'UTR-driven luciferase in osteoblasts – cell-based, Clone20 osteoblasts, firefly luciferase, cherry-picked, dose response (AID 624132); format: functional;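 note: firefly luciferase luminescence from reporter carrying the Shn3 3'UTR in osteoblasts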
[16] = non-specific 3'UTR reporter inhibition in Clone20-Shn3RL – cell-based, Renilla luciferase, cherry-picked, counter-screen for Shn3 inhibitor project, dose response (AID 624133); format: functional
[17] = loss of viability in HepG2 cells – cell-based, CellTiter-Glo, cherry-picked, cytotoxicity control for Shn3 inhibitor project, dose response (AID 624134); format: functional
[18] = HEK-293T viability loss after treatment – luminescence, T-cell screen hits, cytotoxicity control for TCR NF-kB inhibitor project, dose response (AID 489026); format: functional, cell-based;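 note: cells exposed to compound about 14 hours before the viability readout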
Caspase-6 = target: T4, Caspase-6 (Homo sapiens, UniProt P55212); assay: inhibition of CASP6 peptide cleavage – biochemical, VEID-R110 fluorescence, cherry-pick, dose response (AID 720632)
T4 sequence (P55212 whole entry): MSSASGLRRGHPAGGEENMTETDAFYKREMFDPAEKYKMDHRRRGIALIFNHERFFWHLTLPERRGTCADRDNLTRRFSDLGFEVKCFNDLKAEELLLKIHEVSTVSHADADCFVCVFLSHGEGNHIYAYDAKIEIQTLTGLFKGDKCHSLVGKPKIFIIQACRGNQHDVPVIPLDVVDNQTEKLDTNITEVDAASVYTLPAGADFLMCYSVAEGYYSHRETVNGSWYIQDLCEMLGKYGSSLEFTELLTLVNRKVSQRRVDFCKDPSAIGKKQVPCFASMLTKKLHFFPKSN

[19] = target: T5, Oxysterols receptor LXR-beta (Homo sapiens, UniProt P55055); format: functional, cell-based;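 note: agonist activity at LXR measured by a cell-based luminescence readout across a dose range, run as a counterscreen for daf-12 agonists; HEK293 cells with Gal4-LXR fusion and GAL4-driven luciferase reporter; potency for activation of Gal4-LXR reporter so compounds are agonists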
T5 sequence (P55055 whole entry): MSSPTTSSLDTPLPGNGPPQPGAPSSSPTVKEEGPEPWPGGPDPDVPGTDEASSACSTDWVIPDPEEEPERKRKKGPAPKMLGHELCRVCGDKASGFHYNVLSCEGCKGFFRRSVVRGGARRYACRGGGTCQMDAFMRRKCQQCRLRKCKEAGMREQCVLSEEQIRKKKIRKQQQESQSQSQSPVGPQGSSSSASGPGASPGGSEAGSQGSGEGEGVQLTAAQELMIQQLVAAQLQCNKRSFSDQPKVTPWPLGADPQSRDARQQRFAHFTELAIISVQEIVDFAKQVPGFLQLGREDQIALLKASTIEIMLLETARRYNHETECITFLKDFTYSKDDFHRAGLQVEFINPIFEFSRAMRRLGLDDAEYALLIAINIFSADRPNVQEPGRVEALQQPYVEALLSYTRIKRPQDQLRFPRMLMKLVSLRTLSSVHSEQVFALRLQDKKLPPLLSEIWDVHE

Genome polyprotein = Genome polyprotein (dengue virus type 2, UniProt P29990); assay: flavivirus cap methylation enzyme inhibition – biochemical, confirmation dose response, primary screen (AID 588689); format: functional
[20] = target: Glyceraldehyde-3-phosphate dehydrogenase (Homo sapiens, UniProt P04406)
Glyceraldehyde-3-phosphate dehydrogenase, sequence (P04406 whole entry): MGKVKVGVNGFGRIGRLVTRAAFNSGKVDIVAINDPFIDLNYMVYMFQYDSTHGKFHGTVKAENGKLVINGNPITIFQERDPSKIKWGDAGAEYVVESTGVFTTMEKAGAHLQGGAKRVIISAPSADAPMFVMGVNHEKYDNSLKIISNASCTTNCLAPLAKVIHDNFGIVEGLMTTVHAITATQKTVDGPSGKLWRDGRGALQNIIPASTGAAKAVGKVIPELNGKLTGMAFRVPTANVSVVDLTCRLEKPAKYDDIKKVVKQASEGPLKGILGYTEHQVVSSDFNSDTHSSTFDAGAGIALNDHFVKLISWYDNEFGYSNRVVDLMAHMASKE

Genome polyprotein, sequence (P29990 2492-3391 limits assumed): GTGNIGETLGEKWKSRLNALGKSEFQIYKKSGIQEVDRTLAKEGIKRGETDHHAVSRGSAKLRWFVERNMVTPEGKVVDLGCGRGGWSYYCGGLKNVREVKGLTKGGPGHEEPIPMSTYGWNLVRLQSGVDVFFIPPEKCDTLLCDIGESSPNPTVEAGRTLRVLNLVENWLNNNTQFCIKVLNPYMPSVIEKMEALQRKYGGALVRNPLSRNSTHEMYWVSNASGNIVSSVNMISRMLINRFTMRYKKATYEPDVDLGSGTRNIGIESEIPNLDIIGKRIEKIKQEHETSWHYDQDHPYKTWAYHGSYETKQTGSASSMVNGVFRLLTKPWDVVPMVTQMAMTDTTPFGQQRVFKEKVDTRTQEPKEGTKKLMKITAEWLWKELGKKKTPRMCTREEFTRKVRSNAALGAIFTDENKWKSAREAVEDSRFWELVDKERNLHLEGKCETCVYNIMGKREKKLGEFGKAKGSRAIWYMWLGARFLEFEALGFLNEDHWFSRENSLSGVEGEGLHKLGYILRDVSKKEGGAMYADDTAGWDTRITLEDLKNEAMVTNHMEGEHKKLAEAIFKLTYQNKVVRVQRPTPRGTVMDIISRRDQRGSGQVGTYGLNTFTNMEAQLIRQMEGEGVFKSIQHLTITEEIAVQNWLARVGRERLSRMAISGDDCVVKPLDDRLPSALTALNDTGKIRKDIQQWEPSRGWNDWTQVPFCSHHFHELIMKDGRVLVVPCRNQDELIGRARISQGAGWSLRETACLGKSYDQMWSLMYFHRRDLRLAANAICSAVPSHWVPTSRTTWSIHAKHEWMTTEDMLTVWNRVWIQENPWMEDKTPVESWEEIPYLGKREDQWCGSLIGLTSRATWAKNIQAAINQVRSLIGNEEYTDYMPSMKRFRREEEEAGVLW
Large T antigen, sequence (P03070 whole entry): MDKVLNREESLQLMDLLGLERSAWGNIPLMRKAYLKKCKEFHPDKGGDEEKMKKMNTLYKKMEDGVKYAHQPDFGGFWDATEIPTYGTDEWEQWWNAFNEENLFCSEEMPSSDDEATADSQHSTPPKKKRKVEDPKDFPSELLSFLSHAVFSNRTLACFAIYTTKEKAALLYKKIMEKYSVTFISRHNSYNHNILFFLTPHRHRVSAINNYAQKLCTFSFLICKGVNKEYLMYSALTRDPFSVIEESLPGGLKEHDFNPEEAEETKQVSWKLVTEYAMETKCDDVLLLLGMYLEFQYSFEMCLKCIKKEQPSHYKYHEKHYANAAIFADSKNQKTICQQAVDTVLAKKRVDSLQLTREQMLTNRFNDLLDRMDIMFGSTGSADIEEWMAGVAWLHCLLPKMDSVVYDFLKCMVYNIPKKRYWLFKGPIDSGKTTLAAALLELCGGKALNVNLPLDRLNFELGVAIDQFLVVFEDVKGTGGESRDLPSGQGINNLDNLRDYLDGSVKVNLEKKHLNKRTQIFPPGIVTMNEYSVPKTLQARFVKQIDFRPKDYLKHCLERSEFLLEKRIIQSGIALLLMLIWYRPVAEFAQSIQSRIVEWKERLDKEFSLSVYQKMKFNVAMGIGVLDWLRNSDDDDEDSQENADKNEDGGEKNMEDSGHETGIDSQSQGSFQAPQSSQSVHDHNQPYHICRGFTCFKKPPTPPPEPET

CC[C@H](C)/C=C/C1=CC2=C(Cl)C(=O)[C@@]3(C)OC(=O)C(C(=O)[C@H](C)[C@@H](C)O)=C3C2=CO1
IC50 (Large T antigen): 44 µM (active)
AC50 [1]: 7.41 µM (active)

COc1cccc(C)c1NC1=NCCO1
IC50 [2]: 4.12 µM (active)
EC50 (cells [3]): > 29.9 µM (inactive)
IC50 (cells [4]): > 29.9 µM (inactive)
EC50 [5]: 0.734 µM (active)

CC1CCN(C(=O)c2ccc(S(=O)(=O)Cc3cc(F)ccc3F)c([N+](=O)[O-])c2)CC1
AC50 [6]: 53.6 µM (active)
AC50 [7]: > 52 µM (inactive)
AC50 [8]: 31.7 µM (active)
AC50 [9]: 25.4 µM (active)

O=[N+]([O-])/C=C/c1c(Cl)cccc1Cl
AC50 [1]: 1.12 µM (active)

OC(COC(c1ccc(Cl)cc1)c1ccc(Cl)cc1)CN1CCc2ccccc2C1 (centres undefined)
EC50 [10]: > 60 µM (inconclusive)
IC50 [2]: 9.26 µM (active)
EC50 (Protein RecA): 81.5 µM (active)
EC50 (cells [3]): > 29.9 µM (inactive)
IC50 (cells [4]): 12.1 µM (inactive)
EC50 [11]: 2.16 µM (active)
CC50 [12]: 34.7 µM (active)
AC50 [13]: 2.26 µM (active)
EC50 [5]: 2.13 µM (active)

COc1ccc(-c2nn(-c3ccccc3)cc2C(=O)N2CCN(S(=O)(=O)c3ccccc3[N+](=O)[O-])CC2)cc1
AC50 [1]: 3.97 µM (active)

Cc1cccc(C)c1-n1nnnc1C(c1cc2ccccc2o1)N1CCC(n2c(O)nc3ccccc32)CC1 (centres undefined)
AC50 [6]: 3.33 µM (active)
AC50 [14]: 3.43 µM (active)
AC50 [15]: 3.05 µM (active)
AC50 [16]: 4.09 µM (active)
AC50 [7]: 1.98 µM (active)
AC50 [8]: 4.96 µM (active)
AC50 [17]: 2.97 µM (active)
AC50 [9]: 6.22 µM (active)

O=C(O)C1C2CCC(C2)C1C(=O)NCCC1=CCCCC1 (centres undefined)
IC50 [2]: > 29.9 µM (inactive)
EC50 (cells [3]): > 29.9 µM (inactive)
IC50 (cells [4]): > 29.9 µM (inactive)
EC50 [5]: 6.32 µM (active)

O=C1CC(N2CCC(c3nc4ccccc4o3)CC2)C(=O)N1c1ccc(Cl)c(C(F)(F)F)c1 (centres undefined)
AC50 [1]: 2.08 µM (active)

CC1(C)Cc2nc3sc4c(=O)n(CC(=O)NCc5ccccc5)cnc4c3cc2CO1
IC50 [18]: > 80 µM (inactive)

COc1ccccc1NC(=O)N1CCCCN2[C@@H](CO)[C@H](c3ccc(-c4cccc(F)c4)cc3)[C@@H]2C1
AC50 [6]: 52.2 µM (active)
AC50 [14]: 64.7 µM (active)
AC50 [7]: 19 µM (active)
AC50 [8]: > 52 µM (inactive)
AC50 [9]: 18.6 µM (active)

O=C(O)c1ccc(N=Nc2c(O)[nH]c3cc(Cl)ccc23)cc1
AC50 (Caspase-6): 49.4 µM (active)

O=C(CNC(=O)c1ccccc1F)N/N=C\C=C\c1ccccc1
IC50 [2]: 9.57 µM (active)
EC50 (cells [3]): > 29.9 µM (inactive)
IC50 (cells [4]): > 29.9 µM (inactive)
EC50 [5]: > 29.9 µM (inactive)

Cc1cnc(NC(=O)COc2ccc3c(c2)CCC3)s1
EC50 [19]: > 67.6 µM (inactive)

CCSCC(C)(C)n1[nH]c2ccccc2c1=O
EC50 [19]: > 67.6 µM (inactive)

CCN1C(=O)/C(=C/Nc2ccccc2)SC1=S
EC50 [19]: > 67.5 µM (inactive)

Nc1cc2cccnc2cc1Cl
AC50 (Caspase-6): 25.6 µM (active)

COc1cccc(NC(=N)N)c1
IC50 [2]: 5.04 µM (active)
EC50 (cells [3]): > 29.9 µM (inactive)
IC50 (cells [4]): > 29.9 µM (inactive)
EC50 [5]: 1.87 µM (active)

Cc1cccc(N2C(=O)C(Cl)=C(N3CCOCC3)C2=O)c1
IC50 (Genome polyprotein): 34.5 µM (active)
EC50 (Protein RecA): 1.9 µM (active)
IC50 [20]: > 50 µM (inconclusive)
AC50 [13]: 6.69 µM (active)

Nc1c2c(nc3sc4c(c13)CCCC4)CCCCC2
EC50 [19]: > 67.6 µM (inactive)

C/C(=C\C(=O)c1sccc1Cl)N(C)C
EC50 [19]: > 67.6 µM (inactive)
